According to US7544814B2, “[3.2.0] Heterocyclic compounds and methods of using the same” (Nereus Pharmaceuticals, Inc., priority 2004, dated 2009):
Values joined by “and” are separate entries in the source; they are usually repeats but may differ in a detail not shown here. Equal entries are not always repeated. Where two headings read alike, the source gives them in different places.

Experiments:
[1] = biological target: T1, chymotrypsin-like activity of purified rabbit muscle 20S proteasome (Oryctolagus cuniculus, UniProt G1T4Q9); test: In vitro inhibition of 20S proteasome chymotrypsin-like activity (suc-LLVY-AMC)
T1 sequence (G1T4Q9 1-263): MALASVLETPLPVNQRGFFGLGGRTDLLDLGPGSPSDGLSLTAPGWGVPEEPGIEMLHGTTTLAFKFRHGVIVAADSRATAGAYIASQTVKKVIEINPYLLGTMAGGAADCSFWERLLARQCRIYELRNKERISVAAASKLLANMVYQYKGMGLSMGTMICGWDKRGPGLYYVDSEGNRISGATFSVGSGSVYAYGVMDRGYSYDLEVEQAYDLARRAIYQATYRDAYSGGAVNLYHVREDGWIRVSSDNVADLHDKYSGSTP

HT-29 = test: Cell growth inhibition (resazurin), HT-29
U266 = test: Cell growth inhibition (resazurin), U266; conditions: for EC50: 48 hours drug exposure; for cytotoxicity against U266, in words: from EC50 values
[2] = biological target: T2, trypsin-like activity of purified rabbit muscle 20S proteasome (Oryctolagus cuniculus, UniProt G1SWK8); test: biochemical
T2 sequence (G1SWK8 1-271): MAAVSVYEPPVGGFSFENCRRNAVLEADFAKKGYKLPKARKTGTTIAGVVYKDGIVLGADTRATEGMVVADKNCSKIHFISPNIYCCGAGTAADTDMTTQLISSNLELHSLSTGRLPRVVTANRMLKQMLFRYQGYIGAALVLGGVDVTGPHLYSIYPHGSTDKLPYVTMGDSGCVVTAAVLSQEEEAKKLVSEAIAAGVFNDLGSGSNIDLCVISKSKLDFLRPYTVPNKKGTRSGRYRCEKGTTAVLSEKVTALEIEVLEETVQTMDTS

[3] = biological target: T2, trypsin-like activity of purified rabbit muscle 20S proteasome; test: In vitro inhibition of 20S proteasome trypsin-like activity (Boc-LRR-AMC)
[4] = biological target: T3, caspase-like activity of purified rabbit muscle 20S proteasome (Oryctolagus cuniculus, UniProt A0A5F9DQW2); test: In vitro inhibition of 20S proteasome caspase-like activity (Z-LLE-AMC)
T3 sequence (A0A5F9DQW2 1-212): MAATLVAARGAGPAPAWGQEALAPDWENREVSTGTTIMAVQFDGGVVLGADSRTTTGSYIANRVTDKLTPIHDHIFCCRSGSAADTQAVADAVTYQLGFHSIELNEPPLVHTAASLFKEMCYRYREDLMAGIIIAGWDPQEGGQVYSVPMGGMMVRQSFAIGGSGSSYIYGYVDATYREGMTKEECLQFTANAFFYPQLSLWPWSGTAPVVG

B16-F10 = test: Cell growth inhibition (resazurin), B16-F10
OVCAR-3 = test: Cell growth inhibition (resazurin), OVCAR-3; conditions: for EC50: 48 hours drug exposure
NCI-H292 = test: Cell growth inhibition (resazurin), NCI-H292; conditions: for EC50: Homo sapiens, NCI-H292, 48 h
PC-3 = test: Cell growth inhibition (resazurin), PC-3; type: cell-based, human
MDA-MB-231 = test: Cell growth inhibition (resazurin), MDA-MB-231
NF-κB = test: NF-κB-mediated luciferase reporter gene assay, HEK293 NF-κB/Luc cells, TNF-α stimulation; type: cell-based, human; conditions: for effect on luciferase activity upon TNF-α stimulation, in words: pretreatment of NF-κB/Luc 293 cells
Experimental: The HEK293 NF-κB/luciferase reporter cell line is a derivative of the human embryonic kidney cell line (ATCC; CRL-1573) and carries a luciferase reporter gene under the regulation of 5× NF-κB binding sites. […] When performing the luciferase assay, the DMEM basal medium was replaced with phenol-red free DMEM basal medium and the G418 was omitted.
For NF-κB-mediated luciferase assays, HEK293 NF-κB/luciferase cells were seeded at 1.5×10^4 cells/well in 90 μl phenol-red free DMEM complete medium into Corning 3917 white opaque-bottom tissue culture plates. For Formula II-2, Formula II-4, Formula II-5A, and Formula II-18, a 400 μM starting dilution was made in 100% DMSO and this dilution was used to generate a 8-point half log dilution series. […] For Formula II-20, a 2.5 mM or 8 mM starting solution was made in 100% DMSO and the final test concentrations ranged from 6.3 μM to 2.0 nM or 20 μM to 6.3 nM, respectively. The plates were returned to the incubator for 1 hour. After 1 hr pretreatment, 10 μl of a 50 ng/ml TNF-α solution, prepared in the phenol-red free DMEM medium was added, and the plates were incubated for an additional 6 hr.
At the end of the TNF-α stimulation, 100 μl of Steady Lite HTS luciferase reagent (Packard Bioscience) was added to each well and the plates were left undisturbed for 10 min at room temperature before measuring the luciferase activity. The relative luciferase units (RLU) were measured by using a Fusion microplate fluorometer (Packard Bioscience).

RPMI 8226 = test: Cell growth inhibition (resazurin), RPMI 8226; conditions: for cytotoxicity against RPMI 8226, in words: from EC50 values
[5] = EC50 Chymotrypsin-like, Table 6, values in nM
[6] = Homo sapiens, U-266, 48 h, read-out: U266 EC50, Table 2
[7] = EC50 Caspase-like, Table 6, values in nM
[8] = EC50 values, caspase-like activity, summary of Table 6
[9] = Homo sapiens, RPMI-8226, 48 h, read-out: RPMI 8226 EC50, Table 2, 48 hours drug exposure, mean ± SD where n≥3
[10] = read-out: RPMI 8226 EC50, Table 2, 48 hours drug exposure, mean ± SD where n≥3
[11] = EC50 values, chymotrypsin-like activity, summary of Table 6
[12] = EC50 Caspase-like, Table 6, values in μM
[13] = Homo sapiens, HEK293, read-out: EC50, NF-κB-mediated luciferase reporter gene assay, Table 5, values in μM, 1 hr pretreatment, TNF-α 6 hr

SMILES: C[C@@]12OC(=O)[C@]1(C(O)[C@@H]1C=CCCC1)NC(=O)[C@@H]2CCI (single isomer, unassigned) [Formula II-19]
- EC50 [1, 5]: 3 nM
- EC50 ([1]; Proteasome Chymotrypsin-like EC50, Table 12): 3 nM
- EC50 (HT-29; Homo sapiens, HT-29, 48 h, read-out: EC50 against HT-29, Table 1, 48 hours drug exposure, mean ± SD where n≥3): 11 ± 1.6 nM
- cytotoxicity against HT-29, in words (HT-29; from EC50 values): cytotoxic
- EC50 (U266; Homo sapiens, U-266, 48 h, read-out: EC50 against U266, Table 1): 3.2 nM
- EC50 (U266; [6]): 3.2 nM
- cytotoxicity against U266, in words (U266): cytotoxic
- EC50 (U266; read-out: EC50 against U266, Table 1): 3.4 nM
- EC50 (U266; read-out: U266 EC50, Table 2): 3.4 nM
- EC50 [2]: 13 nM and 15 nM
- inhibition of the trypsin-like activity of the 20S proteasome, in words ([3]; under the conditions tested): able to inhibit
- EC50 [4, 7]: 573 nM and 739 nM
- EC50 [4, 8]: 213 to 850 nM
- EC50 ([4]; Proteasome Caspase-like EC50, Table 12): 573 nM and 739 nM
- EC50 (B16-F10; Mus musculus, B16-F10, 48 h, read-out: EC50 against B16-F10, Table 1, 48 hours drug exposure, mean ± SD where n≥3): 13 ± 1.9 nM
- cytotoxicity against B16-F10, in words (B16-F10; from EC50 values): cytotoxic
- EC50 (OVCAR-3; Homo sapiens, OVCAR-3, 48 h, read-out: EC50 against OVCAR-3, Table 1): 24 nM
- cytotoxicity against OVCAR-3, in words (OVCAR-3; from EC50 values): cytotoxic
- EC50 (OVCAR-3; read-out: EC50 against OVCAR-3, Table 1): 20 nM
- EC50 (NCI-H292; read-out: EC50 against NCI-H292, Table 1, 48 hours drug exposure, mean ± SD where n≥3): 27 ± 3.8 nM
- cytotoxicity against NCI-H292, in words (NCI-H292; from EC50 values): cytotoxic
- EC50 (PC-3; Homo sapiens, PC-3, 48 h, Table 1, 48 hours drug exposure, mean ± SD where n≥3, read-out: EC50 against PC-3): 29 ± 4 nM
- cytotoxicity against PC-3, in words (PC-3; from EC50 values): cytotoxic
- EC50 (MDA-MB-231; Homo sapiens, MDA-MB-231, 48 h, read-out: EC50 against MDA-MB-231, Table 1, 48 hours drug exposure, mean ± SD where n≥3): 14 ± 3.2 nM
- cytotoxicity against MDA-MB-231, in words (MDA-MB-231; from EC50 values): cytotoxic
- EC50 (NF-κB; Homo sapiens, HEK293, read-out: EC50, NF-κB-mediated luciferase reporter gene assay, Table 5, values in nM, 1 hr pretreatment, TNF-α 6 hr): 7 nM
- EC50 (NF-κB; Homo sapiens, HEK293, read-out: NF-κB EC50, Table 12): 10 nM
- effect on luciferase activity upon TNF-α stimulation, in words (NF-κB): dose-dependent decrease
- EC50 (RPMI 8226; Homo sapiens, RPMI-8226, 48 h, read-out: EC50 against RPMI 8226, Table 1, 48 hours drug exposure): 5.9 nM
- EC50 (RPMI 8226; [9]): 5.9 nM
- EC50 (RPMI 8226; Homo sapiens, RPMI-8226, read-out: Cytotoxicity RPMI EC50, Table 12): 6 nM
- cytotoxicity against RPMI 8226, in words (RPMI 8226): cytotoxic
- EC50 (RPMI 8226; read-out: Cytotoxicity RPMI EC50, Table 12): 7 nM
- EC50 (RPMI 8226; read-out: EC50 against RPMI 8226, Table 1, 48 hours drug exposure): 7.1 nM
- EC50 (RPMI 8226; [10]): 7.1 nM

SMILES: CC[C@H]1C(=O)N[C@@]2([C@@H](O)C3CCCCC3)C(=O)O[C@@]12C [Formula II-3]
- EC50 [1, 5]: 964 nM
- EC50 [1, 11]: 207 to 964 nM
- EC50 [2]: 5500 nM and 7700 nM
- inhibition of the trypsin-like activity of the 20S proteasome, in words [3]: able to inhibit
- EC50 [4, 12]: > 20000 nM
- EC50 (NCI-H292; read-out: EC50 against NCI-H292): > 20000 nM
- EC50 (RPMI 8226; [9]): > 20000 nM

SMILES: C[C@@]12OC(=O)[C@]1([C@@H](O)[C@@H]1C=CCCC1)NC(=O)[C@@H]2CCN=[N+]=[N-] [Formula II-29]
- EC50 [1, 5]: 6 nM and 8 nM
- EC50 [1, 11]: 2 to 11 nM
- cytotoxicity against U266, in words (U266): cytotoxic
- EC50 [2]: 175 nM and 254 nM
- inhibition of the trypsin-like activity of the 20S proteasome, in words ([3]; under the conditions tested): able to inhibit
- EC50 [4, 7]: 535 nM and 520 nM
- EC50 [4, 8]: 213 to 850 nM
- EC50 (NF-κB; [13]): 1200 nM
- effect on luciferase activity upon TNF-α stimulation, in words (NF-κB): dose-dependent decrease
- EC50 (NF-κB; read-out: EC50, NF-κB-mediated luciferase reporter gene assay, Table 5, values in μM, 1 hr pretreatment, TNF-α 6 hr): 1400 nM
- EC50 (RPMI 8226; [9]): 4280 nM
- cytotoxicity against RPMI 8226, in words (RPMI 8226): cytotoxic
- EC50 (RPMI 8226; [10]): 6940 nM

SMILES: CCC[C@H]1C(=O)N[C@@]2([C@@H](O)[C@@H]3C=CCCC3)C(=O)O[C@@]12C [Formula II-30]
- EC50 [1, 5]: 21 nM
- EC50 [1, 11]: 13 to 88 nM
- EC50 (U266; [6]): 889 nM
- cytotoxicity against U266, in words (U266): cytotoxic
- EC50 (U266; read-out: U266 EC50, Table 2): 1240 nM
- EC50 [2]: 905 nM and 1200 nM
- inhibition of the trypsin-like activity of the 20S proteasome, in words ([3]; under the conditions tested): able to inhibit
- EC50 [4, 7]: 956 nM
- EC50 [4, 12]: 1300 nM
- EC50 ([4]; EC50 values, caspase-like activity, range in mixed units, summary of Table 6, range from nM to μM): 956 to 8700 nM
- EC50 (NF-κB; [13]): 2200 nM
- effect on luciferase activity upon TNF-α stimulation, in words (NF-κB): dose-dependent decrease
- EC50 (RPMI 8226; [9]): 4900 nM
- cytotoxicity against RPMI 8226, in words (RPMI 8226): cytotoxic
- EC50 (RPMI 8226; [10]): 4160 nM
